Values quoted from earlier work in patent publication US20030087789A1, “Emulsion containing a plant extract, method for producing said emulsion and for obtaining a plant extract” (priority 2000, published 2003).

Experiments:
Escherichia coli = details: intestinal Escherichia coli

C=C(C)[C@@H]1CC[C@]2(CO)CC[C@]3(C)[C@H](CC[C@@H]4[C@@]5(C)CC[C@H](O)C(C)(C)[C@@H]5CC[C@]43C)[C@@H]12 [betulin]
bacteriostatic and bactericidal effect (Shigella flexneri): bacteriostatic and bactericidal effect
bacteriostatic and bactericidal effect (Staphylococcus aureus): bacteriostatic and bactericidal effect
bacteriostatic and bactericidal effect (Escherichia coli): bacteriostatic and bactericidal effect
solubility in cold petroleum ether (cold petroleum ether (C5-C8 CH)): practically insoluble
solubility in dichloromethane, chloroform and cold organic solvents (dichloromethane, chloroform and cold organic solvents): only slightly soluble
solubility in pyridine and tetrahydrofuran (pyridine and tetrahydrofuran): soluble
solubility in water (water): practically insoluble
solubility in water or water-alcohol mixtures (water or water-alcohol mixtures (up to 60% alcohol)): insoluble
bacteriostatic and bactericidal effect (Salmonella typhi): bacteriostatic and bactericidal effect
